# Data reported in patent US12134784B2, “Method for preparing intestinal tract cell layer derived from pluripotent stem cell” (PUBLIC UNIVERSITY CORPORATION NAGOYA CITY UNIVERSITY, priority 2018, dated 2024).
# Experiments:
# [1] = tested on: human iPS cell-derived intestinal organoid; assay: Inflammatory bowel disease model using intestinal organoid (TNF-α addition); type: cell-based
# Procedure: (A) Protocol for preparation of an inflammatory bowel disease model. (B) The mRNA expression analysis of an intestinal organoid in the cases of TNF-α and infliximab addition. Average±S.D. (n=3). The mRNA expression level of the control was regarded as 1. (C) Immunofluorescent staining of an intestinal organoid in the cases of TNF-α and infliximab addition. DAPI: Nuclear staining. Scale bar: 50 μm.
# (§1) To prepare an inflammatory bowel disease model and a fibrosis model, 30 ng/mL TNF-α and 30 ng/mL TNF-α+2 ng/mL TGF-β were added for 96 hours and 48 hours from Day 34 after completion of differentiation induction, respectively. To suppress these reactions, 100 ng/mL infliximab (anti-TNF-α antibody) for the inflammatory bowel disease model and 20 μM SB431542 or 20 μM Repsox serving as a TGF-β inhibitor, for fibrosis model were added, respectively, for the same length of time as above. Note that, to enhance the function of an intestinal organoid, PD98059, 5-aza-2′-deoxycytidine, A-83-01 and N-[(3,5-difluorophenyl) acetyl]-L-alanyl-2-phenyl-1,l-dimethylethylester-glycine (DAPT) were added from Day 19 after initiation of differentiation induction to the completion of differentiation. The addition effects in these cases were checked.
# Whether an inflammatory bowel disease model can be prepared by using an intestinal organoid prepared by a new differentiation induction method was investigated by adding a main cause, i.e., an inflammatory cytokine, TNF-α, from Day 34 after completion of differentiation induction up to 96 hours (FIG. 7A). The expressions of villin and MUC2 gene decreased by addition of TNF-α; however, the expression of TNF-α increased. The decrease/increase in expression was suppressed by addition of an anti-TNF-α antibody, infliximab (FIG. 7B). Subsequently, expressions of a tight junction protein and an apoptosis marker were confirmed by immunofluorescent staining. It was observed that a tight junction structure is destroyed by addition of TNF-α. The number of cells positive to Caspase-3 increased. These changes were not found in an infliximab addition group (FIG. 7C). In inflammatory bowel disease, it is reported that an inflammatory cytokine affects in-vivo intestinal epithelial cells to destroy tight junction, with the result that the number of mucus secretory cells, i.e., goblet cells, decreases.
# [2] = tested on: CYP3A4; assay: Inducibility of CYP3A4 in human intestinal organoid differentiated by using a polysaccharide polymer; settings: VD3 1 μmol/L, 72 hours
# [3] = tested on: CYP3A4
# [4] = tested on: human iPS cell-derived intestinal organoid; assay: Fibrosis model using intestinal organoid (TNF-α and TGF-β addition); type: cell-based; settings: 20 μM inhibitor with 30 ng/mL TNF-α+2 ng/mL TGF-β, 48 hours
# Procedure: (A) A protocol for preparation of a fibrosis model. (B) The mRNA expression analysis of an intestinal organoid in the cases of addition of TNF-α+TGF-β and TGF-β inhibitor (SB431542, Repsox). Average±S.D. (n=3). The mRNA expression level of the control was regarded as 1.
# as §1
# In order to reproduce fibrosis of a tissue in-vitro, which is developed by chronic inflammation in inflammatory bowel disease, TNF-α and TGF-β, each are reported as a main cause, were added for 48 hours from Day 34 after completion of differentiation induction (FIG. 8A). […]
# [5] = tested on: CYP3A4; assay: CYP3A4 metabolic activity of human intestinal organoid (midazolam, LC-MS/MS); settings: 5 μmol/L midazolam, 24 hours; addition of ketoconazole
# [6] = 30 ng/mL TNF-α, 96 hours from Day 34
compound,measurement,setting,value
TNF-α,number of cells positive to Caspase-3,"[1]; 30 ng/mL TNF-α, 96 hours",increased
same,tight junction structure (immunofluorescent staining),"[1]; 30 ng/mL TNF-α, 96 hours",destroyed
same,expression of TNF-α,[1]; [6],increased
same,expressions of villin and MUC2 gene,[1]; [6],decreased
"C=C1/C(=C\C=C2/CCC[C@]3(C)[C@@H]([C@H](C)CCCC(C)(C)O)CC[C@@H]23)C[C@@H](O)C[C@@H]1O [activated vitamin D3, 1α, 25-dihydroxy vitamin D3]",metabolic activity of midazolam,"[2]; 5 μmol/L midazolam, 24 hours",significantly increased
same,mRNA expression of CYP3A4,[2]; compared to control group,significantly induced
same,mRNA expression level of CYP3A4 increased,[3],about 1700 fold
NC(=O)c1ccc(-c2nc(-c3ccc4c(c3)OCO4)c(-c3ccccn3)[nH]2)cc1 [SB431542],decrease/increase in expression of fibrosis markers caused by TNF-α and TGF-β,[4],suppressed
Cc1cccc(-c2[nH]ncc2-c2ccc3ncccc3n2)n1 [Repsox],decrease/increase in expression of fibrosis markers caused by TNF-α and TGF-β,[4],suppressed
infliximab: anti-TNF-α antibody,destruction of tight junction structure and increase of Caspase-3 positive cells (immunofluorescent staining),"[1]; 100 ng/mL infliximab with 30 ng/mL TNF-α, 96 hours",not found
same,"decrease/increase in expression (villin, MUC2, TNF-α) caused by TNF-α","[1]; 100 ng/mL infliximab with 30 ng/mL TNF-α, 96 hours from Day 34",suppressed
CC(=O)N1CCN(c2ccc(OCC3COC(Cn4ccnc4)(c4ccc(Cl)cc4Cl)O3)cc2)CC1 (stereo not drawn) [ketoconazole],midazolam's metabolic activity (CYP3A4),[5],significantly inhibited
